Measurements taken from patent publication US6495538B2, “Zinc ionophores as therapeutic agents” (Zinc Therapeutics, Canada Inc., priority 1999, dated 2002).

Key:
[1] = tested on: cultured HUVEC, isolated cardiac myocytes, and cultured cerebellar neurons; assay: Zinc ionophore screening with Fura-2 loaded cells; assay type: cell-based, human, rabbit, mouse; conditions: for zinc ionophore activity: 1 μM zinc-complexed holo-ionophore, slope of Fura-2 fluorescence ratio 340/380 nm
Protocol: Human umbilical vein endothelial cells (HUVEC) were purchased from Clonetics (San Diego, Calif.) and passages 2-4 were used for these studies. Cells were cultured on flame-sterilized glass coverslips in Endothelial Basal Medium (Clonetics) supplemented with 10 ng/ml human recombinant epidermal growth factor, 1.0 ug/ml hydrocortisone, 50 ug/ml gentamicin, 50 ng/ml amphotetericin B, 12 ug/ml bovine brain extract and 2% v/v fetal bovine serum (all from Clonetics), in a humidified chamber at 37° C. and 5% CO2. To maintain cell populations, proliferating HUVEC were passaged at 80-90% confluency.
Cardiac myocytes were isolated from the ventricular septum of adult rabbit hearts, following collagenase digestion, in a manner similar to that described previously (Turan, B. et al., (1997) Am. J. Physiol. 272:H2095-H2106). The modification consisted of introducing low concentrations of CaCl2 during the perfusion with collagenase and the dispersion of the myocytes. Hearts were perfused for about 2 min by gravity under a hydrostatic pressure of 1 m, with a nominally Ca^2+-free solution containing (in mM): NaCl, 145; KCl, 5; MgSO4, 1.2; Na2HPO4, 1.8; HEPES, 5; glucose, 10; pH adjusted to 7.4 with NaOH. Forty ml of this perfusate were then supplemented with collagenase (1 mg/ml) and perfusion was continued with recirculation. […] The flow rate was then adjusted to 15 ml/min and 50 μM CaCl2 was added to the collagenase solution. Perfusion with this solution was continued for another 15 to 18 min, followed by a 2 min washout of the enzyme with fresh perfusate containing 100 μM CaCl2 and no collagenase. The hearts were then removed from the apparatus and the ventricular septum isolated and minced. Dissociation of the cells was obtained by gentle agitation of the minced tissue in 50 ml of the same perfusing solution. Following filtration through a 200 μm nylon mesh, the cells were allowed to settle and the supernatant was replaced with a solution containing 2 mM CaCl2. Cells were kept at 37° C. in this pre-oxygenated solution and were studied within 8 hours after isolation, cellular viability was ensured by regularly replacing the incubation solution.
Primary cultures of mouse cerebellar granule neurons were obtained from dissociated cerebella of postnatal day 8 or 9 mice according to the following protocol (Cregan et al., (1999) J. Neurosci. 19:7860-7869, incorporated herein by reference). Brains were removed and placed into separate dishes containing solution A (124 mM NaCl, 5.37 mM KCl, 1 mM NaH2 PO4 , 1.2 mM MgSO4 , 14.5 mM D-(1)-glucose, 25 mM HEPES, 3 mg/ml BSA, pH 7.4) in which the cerebella were dissected, meninges removed, and tissue sliced into small pieces. The tissue was briefly centrifuged and transferred to solution A containing 0.25 mg/ml trypsin, then incubated at 37° C. for 18 min. After the addition of 0.082 mg/ml trypsin inhibitor (Boehringer Mannheim, Indianapolis, IN) and 0.25 mg/ml DNase I (Boehringer Mannheim), the tissue was incubated at 25° C. for 2 min. After a brief centrifugation, the resulting pellet was gently titrated in solution A yielding suspension that was further incubated for 10 min at 25° C. in solution A containing 2.7 mM MgSO4 and 0.03 mM CaCl2. After a final centrifugation the pellet was resuspended in EMEM media (Sigma, St. Louis, Mo.) containing 10% dialyzed FBS (Sigma), 25 mM KCl, 2 mM glutamine (Life Technologies BRL, Gaithersburg, Md.), 25 mM glucose, and 0.1 mg/ml gentamycin (Sigma) and filtered through a cell strainer (size 70 μm; Falcon). Cells were plated on glass coverslips coated with poly-D-lysine (Sigma) in Nunc four-well dishes at a density of 1.5×10^6 cells per milliliter of medium. Cytosine-β-arabinoside (10 μM; Sigma) was added 24 hr after plating.
In order to ascertain that the transported ion was indeed Zn^2+, and not some other divalent cation contaminant, the test compounds were first complexed with zinc.

PTZ-induced seizures = assay: Subcutaneous PTZ (pentylenetetrazole) test; assay type: in vivo, rat; conditions: 62.5 nmol/kg i.p.
From the text: The ability of a test compound to inhibit PTZ-induced clonic and tonic convulsions is currently regarded as predictive of efficacy against “absence” seizures and/or myoclonic seizures (Suzdak, Jansen, 1995, Epilepsia, 36(6):612-626). The pharmacological profile of the PTZ test varies depending on the endpoint selected: PTZ can produce myoclonic jerks, repeated clonic seizures of forelimbs and hindlimbs with and without loss of righting reflex, and loss of righting reflex followed by tonic extension of the forelimbs and hind limbs. To have the full picture of the PTZ-induced seizures and of the effects of zinc ionophores, and to make the model more discriminative (White at al., supra) the behavioral reaction of each rat was monitored for a period of 2 hours which is much longer than the usual time period in conventional screening experiments.
PTZ (120 mg/kg) was administered subcutaneously to male Wistar rats (300-450 g). Zinc ionophores were injected i.p. in one bolus, 30 min before PTZ at a dose of 62.5 nmol/kg and a total volume of 0.25-0.4 ml.

PC12 cells = assay: Differentiated PC12 cells, H2O2-induced apoptosis; assay type: cell-based, rat; conditions: concentrations equivalent to those of zinc-pyrithione; not shown
From the text: Control cells were pretreated with the carrier DMSO alone.

[2] = tested on: Human umbilical vein endothelial cells (HUVEC)
Protocol: Human umbilical vein endothelial cells (HUVEC) were purchased from Clonetics (San Diego, Calif.) and used from passages 2-4. Cells were cultured on gelatin-coated culture dishes in Endothelial Basal Medium (Clonetics) supplemented with 10 ng/ml human recombinant epidermal growth factor, 1.0 ug/ml hydrocortisone, 50 ug/ml gentamicin, 50 ng/ml amphotetericin B, 12 ug/ml bovine brain extract and 2% v/v fetal bovine serum, in a humidified chamber at 37° C. and 5% CO2. To maintain cell populations, proliferating HUVEC were passaged at 80-90% confluency.
HUVEC were grown to confluency, and then given an additional 24 hours to achieve quiescence prior to experimental treatment. The following treatments were performed:
The cells were washed twice with 37° C. D-PBS and then irradiated in fresh media. Irradiated cells received a dose of 1000 Rads of gamma-irradiation from a ^137Cesium source (Atomic Energy of Canada). The cells were then incubated for 2 hours (cytosolic and nuclear protein extraction) or 8 hours (Hoechst staining and DNA electrophoresis).
Cells were grown on round, gelatin coated 12 mm glass coverslips, and following treatment, were fixed with 0.5 ml of 1% glutaraldehyde in PBS for 10 minutes at room temperature (RT). […] The nuclear morphology of the cells was then visualized under a Zeiss Axiophot fluorescence microscope.

Structure (SMILES): Oc1cccc2cccnc12 [8-Hydroxyquinoline]
- zinc ionophore activity [1]: 8-Hydroxyquinoline, ✓

Structure (SMILES): CCN(CC)C(=S)SSC(=S)N(CC)CC [Disulfiram]
- zinc ionophore activity [1]: Disulfiram ✓✓

Structure (SMILES): COc1ccc2c(c1)c(CC(=O)O)c(C)n2C(=O)c1ccc(Cl)cc1 [Indomethacin]
- zinc ionophore activity [1]: Indomethacin ✓

Structure (SMILES): S=C(S)N1CCCC1 [Pyrrolidinedithiocarbamate]
- zinc ionophore activity [1]: Pyrrolidinedithiocarbamate ✓✓

Structure (SMILES): CC1=C(/C=C/C(C)=C/C=C/C(C)=C/CO)C(C)(C)CCC1 [Vitamin A (all-trans-retinol), all-trans-retinol]
- zinc ionophore activity [1]: Vitamin A (all-trans-retinol) ✓

Structure (SMILES): Cc1c(C)c2c(c(C)c1O)CC[C@@](C)(CCC[C@H](C)CCC[C@H](C)CCCC(C)C)O2 [Vitamin E (alpha-tocopherol), alpha-tocopherol]
- zinc ionophore activity [1]: Vitamin E (alpha-tocopherol) ✓

Structure (SMILES): Oc1c(I)cc(I)c2cccnc12.[Zn] [ZDIHQ, zinc 5,7-diiodo-8-hydroxyquinoline]
- zinc ionophore activity [1]: 5,7-Diiodo-8-hydroxyaquinoline ✓✓
- ionophore activity compared between cell types ([1]; HUVEC, cardiac myocytes, cerebellar neurons): comparable in all three cell types tested
- latency of clonus with loss of righting reflex (PTZ-induced seizures; M ± S.E.M.): 21.2 ± 2.7 min
- latency of clonus without loss of righting reflex (PTZ-induced seizures; M ± S.E.M.): 15.6 ± 1.7 min
- latency of tonic seizure (PTZ-induced seizures; M ± S.E.M.): 28.4 ± 4.1 min
- increase of survival time (mean time to death) of non-survivors (PTZ-induced seizures; rats which died within 2 h): 1.6 fold

Structure (SMILES): [Zn+2] [Zn^2+]
- apoptosis of H2O2-treated cells (PC12 cells): did not block apoptosis

Structure (SMILES): [Na+].[O-][n+]1ccccc1[S-] [sodium-pyrithione]
- apoptosis in irradiated HUVEC ([2]; 1000 Rads gamma-irradiation, 8 hours): not effective
- apoptosis caused in control cultures ([2]; non-irradiated HUVEC): No apoptosis
